This note sets out measurements from ChEMBL document CHEMBL1201862, “PubChem BioAssay data set” (2004).

Values joined by “and” are separate entries in the source; they are usually repeats but may differ in a detail not shown here. Equal values may be shown once.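 Each compound was tested at five concentrations against cells in 96-well plates for 48 hours. GI50: concentration for 50% inhibition of growth.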 Active and inactive are the calls of the source. Cut-off read from the data, not from the text of the source: active = GI50 up to about 1.1 µM and inactive = higher.

Test systems include HCC 2998; SN12C; MOLT-4; MDA-MB-435; OVCAR-3; UACC-62; MCF7; UO-31; TK-10; CCRF-CEM; HOP-62; SF-539; 786-0; SK-OV-3; RPMI-8226; NCI-H226; A549; COLO 205; HOP-92.
Holding throughout (test): NCI-60 cell line screen, 48 h

Take `N#CCCC1(CCC#N)CCc2ccccc2C1=O`: the GI50 in the assay on HCC 2998, in the assay with SN12C, in the assay with MOLT-4, in the assay with MDA-MB-435, in the assay on OVCAR-3 and with UACC-62 was > 100 µM (inactive) in each case. Also, the GI50 in the assay on MCF7, in the assay on UO-31, in the assay on TK-10, in the assay on CCRF-CEM, with HOP-62 and in the assay on SF-539 was > 100 µM (inactive) in each case. The GI50 in the assay on 786-0, in the assay with SK-OV-3, in the assay with RPMI-8226 and in the assay on NCI-H226 was > 100 µM (inactive) throughout.

Turning to `Cn1nc2ccc([N+](=O)[O-])cc2[n+]1[O-]`, the GI50 was > 100 µM (inactive) in the assay on HCC 2998; 22.4 µM (inactive) in the assay on SN12C; > 100 µM (inactive) in the assay with A549; > 100 µM (inactive) with COLO 205; > 100 µM (inactive) in the assay with MOLT-4; > 100 µM (inactive) in the assay with MDA-MB-435. The GI50 in the assay on OVCAR-3, in the assay with UACC-62, in the assay on MCF7, in the assay on UO-31, in the assay with TK-10 and in the assay with CCRF-CEM was > 100 µM (inactive) in each case. Besides, the GI50 in the assay on HOP-62, in the assay with SF-539, with 786-0, in the assay with SK-OV-3 and in the assay with NCI-H226 was > 100 µM (inactive) in each case.

As to `S=C(Nc1ccccn1)Nc1ccccc1Cl`, the GI50 is > 100 µM (inactive) with HCC 2998; > 100 µM (inactive) in the assay with SN12C; 50.8 µM (inactive) in the assay on A549; > 100 µM (inactive) in the assay with COLO 205; > 100 µM (inactive) with MOLT-4; 69.5 µM (inactive) with MDA-MB-435. Moreover, the GI50 in the assay with OVCAR-3 was > 67.1 µM (inactive); in the assay on UACC-62, > 52.4 µM (inactive); with MCF7, 5.98 µM (inactive); with UO-31 it was > 100 µM (inactive); in the assay on TK-10, > 68.7 µM (inactive); with CCRF-CEM it was > 100 µM (inactive). Besides, the GI50 was 52 µM (inactive) in the assay on HOP-62; 55.3 µM (inactive) in the assay with SF-539; > 67.5 µM (inactive) in the assay with 786-0; > 66.1 µM (inactive) in the assay on SK-OV-3; > 100 µM (inactive) in the assay with RPMI-8226.

For `Clc1ccc(Nc2ncco2)cc1Cl`, the GI50 in the assay on HCC 2998, in the assay with SN12C, in the assay with A549, in the assay on COLO 205, in the assay with MOLT-4 and in the assay with MDA-MB-435 was > 10 µM (inactive) throughout. Further, the GI50 in the assay with OVCAR-3, in the assay with UACC-62, in the assay on MCF7, with UO-31, in the assay with TK-10 and in the assay with CCRF-CEM was > 10 µM (inactive) each time. Moreover, the GI50 in the assay on HOP-92, in the assay with HOP-62, in the assay with SF-539, in the assay with 786-0, in the assay with SK-OV-3 and in the assay with NCI-H226 was > 10 µM (inactive) in each case.

Consider `CCOC(=O)c1cnc2[nH]ccn2c1=O`, for which the GI50 with SN12C, with A549, with COLO 205, in the assay with MOLT-4, in the assay with MDA-MB-435 and in the assay with OVCAR-3 was > 10 µM (inactive) throughout. For the same compound, the GI50 in the assay on UACC-62, in the assay on MCF7, in the assay on UO-31, in the assay on TK-10, in the assay on CCRF-CEM and in the assay with HOP-92 was > 10 µM (inactive) each time. For the same compound, the GI50 with HOP-62, in the assay on SF-539, in the assay with 786-0, in the assay on SK-OV-3, in the assay with RPMI-8226 and in the assay with NCI-H226 was > 10 µM (inactive) in each case.

As for `Cc1c2c(n(CCc3ccccc3)c1C)NN=C(C#N)S2(=O)=O`, the GI50 in the assay on HCC 2998, with SN12C, in the assay with A549, in the assay on COLO 205, in the assay on MOLT-4 and in the assay with MDA-MB-435 was > 100 µM (inactive) in each case. The GI50 in the assay with OVCAR-3, in the assay on UACC-62, in the assay on MCF7, in the assay with UO-31, with TK-10 and with HOP-62 was > 100 µM (inactive) each time. Further, the GI50 in the assay with SF-539, in the assay with 786-0, in the assay on SK-OV-3 and with RPMI-8226 was > 100 µM (inactive) throughout.

`Cc1nc2cc(Cl)c(N)cc2[nH]1`: the GI50 in the assay with HCC 2998 was > 10 µM (inactive); with SN12C it was > 100 µM (inactive); with A549, > 100 µM (inactive); with COLO 205 it was > 100 µM (inactive); with MOLT-4 it was > 100 µM (inactive); in the assay on MDA-MB-435 it was > 100 µM (inactive). Also, the GI50 with OVCAR-3, in the assay on UACC-62, in the assay with MCF7, in the assay on UO-31, in the assay on TK-10 and in the assay with CCRF-CEM was > 100 µM (inactive) throughout. For the same compound, the GI50 in the assay with HOP-62 was > 100 µM (inactive); in the assay on SF-539, > 10 µM (inactive); in the assay on 786-0, > 100 µM (inactive); in the assay on SK-OV-3 it was > 100 µM (inactive); in the assay with RPMI-8226 it was > 100 µM (inactive); in the assay with NCI-H226, > 100 µM (inactive).

With `COc1cc(O)c2c(=O)c(OC)c(-c3ccc4c(c3)OCO4)oc2c1`, the GI50 with HCC 2998 was > 100 µM (inactive); in the assay with SN12C, > 100 µM (inactive); with A549, > 28.8 µM (inactive); in the assay with COLO 205 it was > 100 µM (inactive); in the assay with MOLT-4, > 68.9 µM (inactive); with MDA-MB-435, > 100 µM (inactive). Also, the GI50 in the assay with UACC-62 was 78.9 µM (inactive); in the assay with MCF7 it was > 100 µM (inactive); in the assay with UO-31, > 100 µM (inactive); with TK-10 it was 36.7 µM (inactive); with CCRF-CEM, > 100 µM (inactive); in the assay with HOP-62, 7.76 µM (inactive). Further, the GI50 in the assay with SF-539 is > 27.4 µM (inactive); in the assay with 786-0 it was 15.3 µM (inactive); in the assay with SK-OV-3, 13.9 µM (inactive); in the assay with RPMI-8226 it was > 100 µM (inactive); in the assay with NCI-H226, > 57.9 µM (inactive).

As for `CCNC(=O)CCC(C)[C@H]1CCC2C3C(C[C@H](OC(C)=O)[C@@]21C)[C@@]1(C)CCC2(C[C@H]1C[C@H]3OC(C)=O)OOC1(CCC(C)CC1)OO2` (stereo partly drawn), the GI50 was 1.75 µM (inactive) and 3.1 µM (inactive) with HCC 2998; 2.52 µM (inactive) and 1.83 µM (inactive) in the assay on SN12C; 1.5 µM (inactive) and 1.49 µM (inactive) with A549; 1.53 µM (inactive) and 1.65 µM (inactive) in the assay with COLO 205; 1.79 µM (inactive) and 1.72 µM (inactive) with MDA-MB-435; 1.55 µM (inactive) and 1.59 µM (inactive) in the assay with OVCAR-3. Further, the GI50 with UACC-62 is 1.69 µM (inactive) and 2.26 µM (inactive); in the assay on MCF7, 2.56 µM (inactive) and 2.7 µM (inactive); with UO-31, 1.02 µM (active) and 1.35 µM (inactive); in the assay with TK-10, 2.3 µM (inactive) and 2.43 µM (inactive); in the assay with CCRF-CEM, 710 nM (active) and 1.24 µM (inactive); in the assay with HOP-92 it was 1.68 µM (inactive) and 1.44 µM (inactive). The GI50 in the assay with HOP-62 is 689 nM (active) and 1.31 µM (inactive); with SF-539, 1.97 µM (inactive) and 2.75 µM (inactive); in the assay with 786-0, 2.38 µM (inactive) and 1.58 µM (inactive); in the assay on SK-OV-3 it was 4.02 µM (inactive) and 2.54 µM (inactive); with NCI-H226, 1.52 µM (inactive) and 1.69 µM (inactive).

With `CC(=O)CCC(=O)C(=[N+]=[N-])S(=O)(=O)c1ccccc1`, the GI50 with HCC 2998, with SN12C, with A549, in the assay with COLO 205, in the assay on MOLT-4 and in the assay on MDA-MB-435 was > 100 µM (inactive) throughout. Also, the GI50 in the assay on OVCAR-3, with UACC-62, with MCF7, in the assay with UO-31, with TK-10 and with CCRF-CEM was > 100 µM (inactive) in each case. The GI50 in the assay with HOP-62, in the assay with SF-539, with 786-0 and with RPMI-8226 was > 100 µM (inactive) throughout.

In the case of `O=C(O)CSc1ccn(Cc2ccccc2)c1`, the GI50 with SN12C, in the assay with A549, in the assay on COLO 205, in the assay with MOLT-4, with MDA-MB-435 and in the assay on OVCAR-3 was > 100 µM (inactive) in each case. Besides, the GI50 with UACC-62, in the assay on MCF7, in the assay with UO-31, with TK-10, with CCRF-CEM and in the assay on HOP-92 was > 100 µM (inactive) each time. The GI50 with HOP-62, in the assay on SF-539, in the assay on 786-0, with SK-OV-3, with RPMI-8226 and with NCI-H226 was > 100 µM (inactive) throughout.
